Results: ChEMBL document CHEMBL1126161, “3,4-Dihydroquinolin-2(1H)-ones as combined inhibitors of thromboxane A2 synthase and cAMP phosphodiesterase” (J Med Chem, 1992)

Assays:
Rattus norvegicus [1] = assay: Antihypertensive activity in conscious spontaneously hypertensive rat (SHR), percent change in heart rate (beats/min) after 4 hr at 0.3 mg/kg peroral dose; format: functional; details: route oral
Rattus norvegicus [2] = assay: Antihypertensive activity in conscious spontaneously hypertensive rat (SHR), percent change in heart rate (beats/min) after 8 hr at 0.3 mg/kg peroral dose; format: functional; details: route oral
Rattus norvegicus [3] = assay: Antihypertensive activity in conscious spontaneously hypertensive rat (SHR), percent change in Systolic blood pressure (SBP) at 0.3 mg/kg peroral dose after 4 hr; format: functional; details: route oral
Homo sapiens [4] = organism: Homo sapiens; assay: Inhibition of ADP-induced aggregation of human PRP in the absence of pig aortal microsomes (PAM); format: functional
Homo sapiens [5] = organism: Homo sapiens; assay: Inhibition of [14C]arachidonic acid induced platelet aggregation at 50 uM (Control 6-keto-PGF1-alpha = 1.45+/-0.6); format: functional
Homo sapiens [6] = organism: Homo sapiens; assay: Inhibition of [14C]arachidonic acid induced platelet aggregation at 500 uM (Control TXB2 = 14.9+/-2.5); format: functional
Mus musculus [7] = assay: Protection against mortality in pulmonary thromboembolism model in mice at 3 mg/kg; format: functional
Mus musculus [8] = assay: Protection against mortality in pulmonary thromboembolism model in mice at 1 mg/kg; format: functional
Mus musculus [9] = assay: Time course of protection against mortality in a pulmonary thromboembolism model in mice after -1 hr at 10 mg/kg; format: functional
Mus musculus [10] = assay: Time course of protection against mortality in a pulmonary thromboembolism model in mice after -7hr at 10 mg/kg; format: functional
Rattus norvegicus [11] = assay: Antihypertensive activity in conscious spontaneously hypertensive rat (SHR), percent change in heart rate (beats/min) after 8 hr at 1 mg/kg peroral dose; format: functional; details: route oral
Rattus norvegicus [12] = assay: Antihypertensive activity in conscious spontaneously hypertensive rat (SHR), percent change in heart rate (beats/min) after 12 hr at 10 mg/kg peroral dose; format: functional; details: route oral
Rattus norvegicus [13] = assay: Antihypertensive activity in conscious spontaneously hypertensive rat (SHR), percent change in heart rate (beats/min) after 2 hr; format: functional
Rattus norvegicus [14] = assay: Antihypertensive activity in conscious spontaneously hypertensive rat (SHR), percent change in heart rate (beats/min) after 2 hr at 0.3 mg/kg peroral dose; format: functional; details: route oral
Rattus norvegicus [15] = assay: Antihypertensive activity in conscious spontaneously hypertensive rat (SHR), percent change in heart rate (beats/min) after 1 hr at 10 mg/kg peroral dose; format: functional; details: route oral
Rattus norvegicus [16] = assay: Antihypertensive activity in conscious spontaneously hypertensive rat (SHR), percent change in heart rate (beats/min) after 8 hr at 10 mg/kg peroral dose; format: functional; details: route oral
Rattus norvegicus [17] = assay: Antihypertensive activity in conscious spontaneously hypertensive rat (SHR), percent change in heart rate (beats/min) after 1 hr at 1 mg/kg peroral dose; format: functional; details: route oral
Rattus norvegicus [18] = assay: Antihypertensive activity in conscious spontaneously hypertensive rat (SHR), percent change in Systolic blood pressure (SBP) at 1 mg/kg peroral dose after 8 hr; format: functional; details: route oral
Rattus norvegicus [19] = assay: Antihypertensive activity in conscious spontaneously hypertensive rat (SHR), percent change in Systolic blood pressure (SBP) at 3 mg/kg peroral dose after 12 hr; format: functional; details: route oral
Rattus norvegicus [20] = assay: Ex vivo inhibition of blood platelet aggregation in rats at 50 mg/kg peroral dose after 3 hr; format: functional; details: route oral
Rattus norvegicus [21] = assay: Ex vivo inhibition of blood platelet aggregation in rats at 50 mg/kg peroral dose after 5 hr; format: functional; details: route oral
Rattus norvegicus [22] = assay: Antihypertensive activity in conscious spontaneously hypertensive rat (SHR), percent change in Systolic blood pressure (SBP) at 0.3 mg/kg peroral dose after 12 hr; format: functional; details: route oral
Rattus norvegicus [23] = assay: Antihypertensive activity in conscious spontaneously hypertensive rat (SHR), percent change in heart rate (beats/min) after 12 hr at 1 mg/kg peroral dose; format: functional; details: route oral
Homo sapiens [24] = organism: Homo sapiens; assay: Inhibition of [14C]arachidonic acid induced TXB2 formation at 5 uM (Control TXB2 = 14.9+/-2.5)

SMILES: O=C1CCc2cc(/C=C/n3ccnc3)ccc2N1
- Change in heart rate (Rattus norvegicus [1]): -4%
- Change in heart rate (Rattus norvegicus [2]): -8%
- Change in systolic BP (Rattus norvegicus [3]): -28%
- IC50 (Homo sapiens [4]): 5.6 µM
- 6-keto-PGF1α level at 50 µM (Homo sapiens [5]): 11.5%
- inhibition at 500 µM (Homo sapiens [6]): 4.3%
- survival at 3 mg/kg (Mus musculus [7]): 20%
- survival at 1 mg/kg (Mus musculus [8]): 10%
- survival at 10 mg/kg (Mus musculus [9]): 50%
- survival at 10 mg/kg (Mus musculus [10]): 0%
- Change in heart rate (Rattus norvegicus [11]): -5%
- Change in heart rate (Rattus norvegicus [12]): 29%
- Change in heart rate (Rattus norvegicus [13]): 11%
- Change in heart rate (Rattus norvegicus [14]): -13%
- Change in heart rate (Rattus norvegicus [15]): 22%
- Change in heart rate (Rattus norvegicus [16]): 16%
- Change in heart rate (Rattus norvegicus [17]): 17%
- Change in systolic BP (Rattus norvegicus [18]): -9%
- Change in systolic BP (Rattus norvegicus [19]): -3%
- inhibition in vivo at 50 mg/kg (Rattus norvegicus [20]): 94.7%
- inhibition in vivo at 50 mg/kg (Rattus norvegicus [21]): 95.9%
- Change in systolic BP (Rattus norvegicus [22]): -1%
- Change in heart rate (Rattus norvegicus [23]): 1%
- TXB2 level at 5 µM (Homo sapiens [24]): 12.3%
